Source: patent US20230085307A1, “PYRIDAZINONE COMPOUND AND HERBICIDE” (NISSAN CHEMICAL CORPORATION, priority 2019, published 2023)

Legend:
chickweed [1] = assay: Test Example 4: herbicidal effect by soil treatment (Table 19, symbol P); format: in vivo, common chickweed (Stellaria media); conditions: amount of applied herbicide 320 g/ha
In short: (§1)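 Soil-surface application: an emulsion agent diluted with water to the predetermined dose is sprayed uniformly over seeds lying under roughly 1.5 cm of sterilized diluvial soil. Boxes stay in a greenhouse at 25° C. to 30° C. Three weeks later, each species is graded on previously defined criteria.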

rice flat sedge = assay: Test Example 3: herbicidal effect by foliage application, Wagner pot (Table 18, symbol E); format: in vivo, rice flat sedge (Cyperus iria); conditions: 320 g/ha
In short: (§2)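 Plants were sown in alluvial soil held under 0.1–0.5 cm standing water and grown 14 days in a greenhouse at 25–30 °C. An emulsifiable formulation, water-diluted to the set dose, was then sprayed onto the foliage, and effects were scored three weeks later using previously defined criteria.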

southern crabgrass [2] = assay: Test Example 4: herbicidal effect by soil treatment (Table 19, symbol F); format: in vivo, southern crabgrass (Digitaria ciliaris); conditions: amount of applied herbicide 320 g/ha
In short: as §1

green foxtail [3] = assay: Test Example 4: herbicidal effect by soil treatment (Table 19, symbol G); format: in vivo, green foxtail (Setaria viridis); conditions: amount of applied herbicide 320 g/ha
In short: as §1

blackgrass [4] = assay: Test Example 5: herbicidal effect by foliage application, plastic box (Table 20, symbol J); format: in vivo, blackgrass (Alopecurus myosuroides); conditions: 320 g/ha, foliage application after 14-day growth, evaluated three weeks after application
In short: (§3)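 Sow seeds spot-wise in sterilized diluvial soil; cover with ~1.5 cm soil. Grow 14 days in greenhouse, 25° C. to 30° C. Spray foliage with emulsion diluted to predetermined amount. Rate effect after 3 weeks.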

persian speedwell [5] = assay: Test Example 4: herbicidal effect by soil treatment (Table 19, symbol R); format: in vivo, Persian speedwell (Veronica persica); conditions: amount of applied herbicide 320 g/ha
In short: as §1

velvetleaf [6] = assay: Test Example 4: herbicidal effect by soil treatment (Table 19, symbol M); format: in vivo, velvetleaf (Abutilon theophrasti); conditions: amount of applied herbicide 320 g/ha
In short: as §1

green foxtail [7] = assay: Test Example 5: herbicidal effect by foliage application, plastic box (Table 20, symbol G); format: in vivo, green foxtail (Setaria viridis); conditions: 320 g/ha, foliage application after 14-day growth, evaluated three weeks after application
In short: as §3

southern crabgrass [8] = assay: Test Example 5: herbicidal effect by foliage application, plastic box (Table 20, symbol F); format: in vivo, southern crabgrass (Digitaria ciliaris); conditions: 320 g/ha, foliage application after 14-day growth, evaluated three weeks after application
In short: as §3

wild oat [9] = assay: Test Example 4: herbicidal effect by soil treatment (Table 19, symbol I); format: in vivo, wild oat (Avena fatua); conditions: amount of applied herbicide 320 g/ha
In short: as §1

chickweed [10] = assay: Test Example 5: herbicidal effect by foliage application, plastic box (Table 20, symbol P); format: in vivo, common chickweed (Stellaria media); conditions: 320 g/ha, foliage application after 14-day growth, evaluated three weeks after application
In short: as §3

velvetleaf [11] = assay: Test Example 5: herbicidal effect by foliage application, plastic box (Table 20, symbol M); format: in vivo, velvetleaf (Abutilon theophrasti); conditions: 320 g/ha, foliage application after 14-day growth, evaluated three weeks after application
In short: as §3

barnyard grass [12] = assay: Test Example 3: herbicidal effect by foliage application, Wagner pot (Table 18, symbol H); format: in vivo, barnyard grass (Echinochloa crus-galli); conditions: 320 g/ha
In short: as §2

Chinese sprangletop = assay: Test Example 3: herbicidal effect by foliage application, Wagner pot (Table 18, symbol D); format: in vivo, chinese sprangletop (Leptochloa chinensis); conditions: 320 g/ha
In short: as §2

redroot pigweed [13] = assay: Test Example 5: herbicidal effect by foliage application, plastic box (Table 20, symbol N); format: in vivo, redroot pigweed (Amaranthus retroflexus); conditions: 320 g/ha, foliage application after 14-day growth, evaluated three weeks after application
In short: as §3

redroot pigweed [14] = assay: Test Example 4: herbicidal effect by soil treatment (Table 19, symbol N); format: in vivo, redroot pigweed (Amaranthus retroflexus); conditions: amount of applied herbicide 320 g/ha
In short: as §1

barnyard grass [15] = assay: Test Example 4: herbicidal effect by soil treatment (Table 19, symbol H); format: in vivo, barnyard grass (Echinochloa crus-galli); conditions: amount of applied herbicide 320 g/ha
In short: as §1

lambsquarters [16] = assay: Test Example 5: herbicidal effect by foliage application, plastic box (Table 20, symbol O); format: in vivo, lambsquarters (Chenopodium album); conditions: 320 g/ha, foliage application after 14-day growth, evaluated three weeks after application
In short: as §3

Italian ryegrass [17] = assay: Test Example 4: herbicidal effect by soil treatment (Table 19, symbol K); format: in vivo, Italian ryegrass (Lolium multiflorum); conditions: amount of applied herbicide 320 g/ha
In short: as §1

Italian ryegrass [18] = assay: Test Example 5: herbicidal effect by foliage application, plastic box (Table 20, symbol K); format: in vivo, Italian ryegrass (Lolium multiflorum); conditions: 320 g/ha, foliage application after 14-day growth, evaluated three weeks after application
In short: as §3

blackgrass [19] = assay: Test Example 4: herbicidal effect by soil treatment (Table 19, symbol J); format: in vivo, blackgrass (Alopecurus myosuroides); conditions: amount of applied herbicide 320 g/ha
In short: as §1

barnyard grass [20] = assay: Test Example 5: herbicidal effect by foliage application, plastic box (Table 20, symbol H); format: in vivo, barnyard grass (Echinochloa crus-galli); conditions: 320 g/ha, foliage application after 14-day growth, evaluated three weeks after application
In short: as §3

windgrass [21] = assay: Test Example 4: herbicidal effect by soil treatment (Table 19, symbol L); format: in vivo, windgrass (Apera spica-venti); conditions: amount of applied herbicide 320 g/ha
In short: as §1

windgrass [22] = assay: Test Example 5: herbicidal effect by foliage application, plastic box (Table 20, symbol L); format: in vivo, windgrass (Apera spica-venti); conditions: 320 g/ha, foliage application after 14-day growth, evaluated three weeks after application
In short: as §3

lambsquarters [23] = assay: Test Example 4: herbicidal effect by soil treatment (Table 19, symbol O); format: in vivo, lambsquarters (Chenopodium album); conditions: amount of applied herbicide 320 g/ha
In short: as §1

persian speedwell [24] = assay: Test Example 5: herbicidal effect by foliage application, plastic box (Table 20, symbol R); format: in vivo, Persian speedwell (Veronica persica); conditions: 320 g/ha, foliage application after 14-day growth, evaluated three weeks after application
In short: as §3

wild oat [25] = assay: Test Example 5: herbicidal effect by foliage application, plastic box (Table 20, symbol I); format: in vivo, wild oat (Avena fatua); conditions: 320 g/ha, foliage application after 14-day growth, evaluated three weeks after application
In short: as §3

Cc1nn(C)c(=O)c(-c2c(-c3ccccc3)sc3c(Cl)cccc23)c1O [4-056]
Herbicidal effect by soil treatment, P: chickweed (chickweed [1]): 3 (Herbicidal rate of 40% or more and less than 70%)
herbicidal effect on rice flat sedge (E) (rice flat sedge): 4 (Herbicidal rate of 70% or more and less than 90%)
Herbicidal effect by soil treatment, F: southern crabgrass (southern crabgrass [2]): 0 (Herbicidal rate of 5% or less (almost no effect))
Herbicidal effect by soil treatment, G: green foxtail (green foxtail [3]): 0 (Herbicidal rate of 5% or less (almost no effect))
herbicidal effect on J: blackgrass (evaluation grade 0-5) (blackgrass [4]): 4 (Herbicidal rate of 70% or more and less than 90%)
Herbicidal effect by soil treatment, R: persian speedwell (persian speedwell [5]): 0 (Herbicidal rate of 5% or less (almost no effect))
Herbicidal effect by soil treatment, M: velvetleaf (velvetleaf [6]): 0 (Herbicidal rate of 5% or less (almost no effect))
herbicidal effect on G: green foxtail (evaluation grade 0-5) (green foxtail [7]): 1 (Herbicidal rate of 5% or more and less than 20%)
herbicidal effect on F: southern crabgrass (evaluation grade 0-5) (southern crabgrass [8]): 2 (Herbicidal rate of 20% or more and less than 40%)
Herbicidal effect by soil treatment, I: wild oat (wild oat [9]): 0 (Herbicidal rate of 5% or less (almost no effect))
herbicidal effect on P: chickweed (evaluation grade 0-5) (chickweed [10]): 5 (Herbicidal rate of 90% or more (almost completely withered))
herbicidal effect on M: velvetleaf (evaluation grade 0-5) (velvetleaf [11]): 5 (Herbicidal rate of 90% or more (almost completely withered))
herbicidal effect on barnyard grass (H) (barnyard grass [12]): 4 (Herbicidal rate of 70% or more and less than 90%)
herbicidal effect on Chinese sprangletop (D) (Chinese sprangletop): 4 (Herbicidal rate of 70% or more and less than 90%)
herbicidal effect on N: redroot pigweed (evaluation grade 0-5) (redroot pigweed [13]): 5 (Herbicidal rate of 90% or more (almost completely withered))
Herbicidal effect by soil treatment, N: redroot pigweed (redroot pigweed [14]): 0 (Herbicidal rate of 5% or less (almost no effect))
Herbicidal effect by soil treatment, H: barnyard grass (barnyard grass [15]): 0 (Herbicidal rate of 5% or less (almost no effect))
herbicidal effect on O: lambsquarters (evaluation grade 0-5) (lambsquarters [16]): 3 (Herbicidal rate of 40% or more and less than 70%)
Herbicidal effect by soil treatment, K: Italian ryegrass (Italian ryegrass [17]): 0 (Herbicidal rate of 5% or less (almost no effect))
herbicidal effect on K: Italian ryegrass (evaluation grade 0-5) (Italian ryegrass [18]): 4 (Herbicidal rate of 70% or more and less than 90%)
Herbicidal effect by soil treatment, J: blackgrass (blackgrass [19]): 0 (Herbicidal rate of 5% or less (almost no effect))
herbicidal effect on H: barnyard grass (evaluation grade 0-5) (barnyard grass [20]): 3 (Herbicidal rate of 40% or more and less than 70%)
Herbicidal effect by soil treatment, L: windgrass (windgrass [21]): 3 (Herbicidal rate of 40% or more and less than 70%)
herbicidal effect on L: windgrass (evaluation grade 0-5) (windgrass [22]): 5 (Herbicidal rate of 90% or more (almost completely withered))
Herbicidal effect by soil treatment, O: lambsquarters (lambsquarters [23]): 0 (Herbicidal rate of 5% or less (almost no effect))
herbicidal effect on R: persian speedwell (evaluation grade 0-5) (persian speedwell [24]): 5 (Herbicidal rate of 90% or more (almost completely withered))
herbicidal effect on I: wild oat (evaluation grade 0-5) (wild oat [25]): 4 (Herbicidal rate of 70% or more and less than 90%)
